This data set can be described thus: Long term storage stability of purified Mitragynine. The format is physicochemical. Particulars: stored at 2° C.-8° C.

As for `CC[C@@H]1CN2CCc3c([nH]c4cccc(OC)c34)[C@@H]2C[C@@H]1/C(=C\OC)C(=O)OC` [Mitragynine], the Storage stability entry is reported as “stable for long term storage”.

Source of the values: patent publication US20260272896A1, “ORAL D[…] OF MITRAGYNINE” (LUCKY 4U EXIMS, priority 2023, published 2026).
